From patent US20070249988A1, “Electrotransport Delivery of Nesiritide” (ALZA CORPORATION, priority 2006, published 2007)

Tests used:
[1] = Circular dichroic spectrometry (CD), secondary structure; assay type: physicochemical
Protocol: Circular dichroic spectrometry was used to assess the amount of secondary structure present in nesiritide under aqueous, low ionic strength conditions. In addition, changes in the value calculated for mean residual ellipticity were analyzed to determine if secondary structure, specifically α-helix, could be induced upon the addition of 2,2,2-trifluoroethanol (TFE) or high salt, or both, to nesiritide in aqueous solution at 0.8 mg/mL.
Several methods have been used to estimate the secondary structural components of proteins from the CD spectra. The techniques have been applied to peptide spectra with varying degrees of success (Sreerama, N., Woody, R. W. A Self-Consistent method for the Analysis of Protein Secondary Structure from Circular Dichroism, Analytical Biochemistry, 1993; 209 32-44; Yang, J. T. et al. Separation and Analysis of Peptides and Proteins, Methods Enzymology, 1986; 130 208-269). Computer programs were used to analyze the data from CD scans. Mean residue ellipticity ([θ]nm) was computed at each wavelength and compared to reference spectra to estimate the relative amounts of helix, sheet, turn and aperiodic secondary structure.
The secondary structure assumed by nesiritide in an aqueous environment and induced by the addition of TFE, NaCl or both, were analyzed by CD. The peptide was studied at both 32 and 20° C. The peptide was studied at two concentrations: 0.2 mg/mL (20° C.) to allow data to be obtained at wavelengths below 200 nm, and at 0.8 mg/mL (32° C.) to increase any tendency toward self association. The CD ellipticity values at 222 nm have been interpreted to best reflect the amount of α-helix. The fully helical peptide or protein would have [θ]222nm of −32,000° cm^2, while the peptide lacking secondary structure would have a value of ˜2400° cm^2.
The use of the lower concentration, with a 2 mm path, allowed data to be collected down to 197 nm. The difference spectrum (FIG. 1B) was resolved into component gaussian bands (Holladay, L. A., Savage, C. R., Cohen, S., Puett, D. Biochemistry, 1976; 15 2624-2633; Holladay, L. A., Hammonds, R. G., Jr., Puett, D. Biochemistry, 1974; 13 1653-1661) in order to estimate the amount of α-helix and β-sheet formed. Estimates of secondary structure were made by computing the ratio of the observed rotational strength (R cgs) with those for poly-L lysine in either the α-helical or β-sheet form. The table below gives the parameters of the resolved gaussians, and the estimates of secondary structure. Nesiritide in 40% TFE probably exists as a mixture of conformers.

[2] = In vitro electrotransport of nesiritide using hydrogel reservoirs; assay type: in vitro ADME; conditions: heat separated human epidermis
Protocol: Suitable nesiritide flux rates can be achieved by selecting appropriate electrotransport conditions. […] The data shown in the figure were obtained using the transdermal delivery of nesiritide with a silver donor electrode at the anode and a silver chloride counter electrode at the cathode. […] The tests were performed on heat separated human epidermis.
In vitro electrotransport flux experiments were conducted using either synthetic polymeric Nulepore membranes or heat separated human cadaver epidermis. Custom-built horizontal diffusion cells were used for all in vitro skin flux experiments. Silver and silver chloride electrodes were used to apply current across the cell. Nesiritide hydrogels were placed between the silver anode and human heat-separated epidermis. In addition, a PVOH hydrogel containing a polymeric chloride source was placed between the silver anode and the drug hydrogel. A 1/10 dilution of Dulbecco's phosphate buffered saline (0.015 M NaCl) served as the receptor solution, which was continuously pumped through the receptor compartment. […]
(§1) The receptor samples were analyzed for nesiritide using a HPLC assay. In addition, as show in FIGS. 6B and 7B, formulations were also extracted for nesiritide and analyzed via a HPLC assay after use in a flux experiment.

[3] = In use stability of hydrogel formulations under electrotransport conditions (HPLC); assay type: physicochemical; conditions: hydrogel formulation, over 24 hours, at 0.1 mA/cm^2 and 32° C.
Protocol: In vitro electrotransport flux experiments were conducted using either synthetic polymeric Nulepore membranes or heat separated human cadaver epidermis. Custom-built horizontal diffusion cells were used for all in vitro skin flux experiments. Silver and silver chloride electrodes were used to apply current across the cell. Nesiritide hydrogels were placed between the silver anode and human heat-separated epidermis. In addition, a PVOH hydrogel containing a polymeric chloride source was placed between the silver anode and the drug hydrogel. A 1/10 dilution of Dulbecco's phosphate buffered saline (0.015 M NaCl) served as the receptor solution, which was continuously pumped through the receptor compartment. At multiple time points, receptor samples for HPLC analysis were collected using a custom-built, automated Hanson Research Microette™ collection system.
as §1

[4] = Isocratic hydrophobic interaction chromatography (HIC); assay type: physicochemical
Protocol: Nesiritide was analyzed by isocratic hydrophobic interaction chromatography (HIC) using the conditions set forth in the table below to estimate the peptide's hydrophobicity.

[5] = 40% TFE difference spectrum, 0.2 mg/mL, 20° C., pH 7, 10 mM ionic cacodylate, 2 mm path

CC[C@H](C)[C@@H]1NC(=O)[C@H](CCCNC(=N)N)NC(=O)[C@H](CC(=O)O)NC(=O)[C@H](CCSC)NC(=O)[C@H](CCCCN)NC(=O)[C@H](CCCNC(=N)N)NC(=O)CNC(=O)[C@H](Cc2ccccc2)NC(=O)[C@@H](NC(=O)CNC(=O)[C@H](CO)NC(=O)CNC(=O)[C@H](CCC(N)=O)NC(=O)[C@@H](NC(=O)[C@H](CCSC)NC(=O)[C@H](CCCCN)NC(=O)[C@@H]2CCCN2C(=O)[C@@H](N)CO)C(C)C)CSSC[C@@H](C(=O)N[C@@H](CCCCN)C(=O)N[C@H](C(=O)N[C@@H](CC(C)C)C(=O)N[C@@H](CCCNC(=N)N)C(=O)N[C@@H](CCCNC(=N)N)C(=O)N[C@@H](Cc2c[nH]cn2)C(=O)O)C(C)C)NC(=O)CNC(=O)[C@H](CC(C)C)NC(=O)CNC(=O)[C@H](CO)NC(=O)[C@H](CO)NC(=O)[C@H](CO)NC(=O)[C@H](CO)NC1=O [Nesiritide, nesiritide]
[θ]222nm mean residue ellipticity ([1]; 0.8 mg/mL (1 mm path), pH 5.5 unbuffered, in water): −1984 deg cm^2 dmol^−1 | [θ]222nm mean residue ellipticity ([1]; 32° C., 40% or 80% TFE or 1.8 M NaCl): ~3200 ° cm^2 dmol^−1 | % Structure Estimate, α-Helix n → Π* (222 nm) [1, 5]: 6.4% | % Structure Estimate, α-Helix Π → Π* (208 nm) [1, 5]: 5.0% | % Structure Estimate, β-Sheet n → Π* (215 nm) [1, 5]: 5.1% | correlation between magnitude of applied current and steady state flux [2]: linear correlation | in vitro transport efficiency ([2]; silver donor electrode at anode, silver chloride counter electrode at cathode): about 0.14 mg/mAhr | in use stability under electrotransport conditions [3]: sufficient stability | free energy of adsorption to the HIC column, δΔ Gads ([4]; imidazole at pH 7, 10 mM ionic): 0.46 k J mole^−1 | hydrophilicity by HIC ([4]; pH 7.0 imidazole 10 mM ionic, 32° C.): high measured hydrophilicity
